Data taken from patent US20110281896A1, “OPTICALLY PURE QUINAZOLINE COMPOUNDS” (Jiangsu Hansoh Pharmaceutical Co. Ltd, priority 2009, published 2011).

Columns and labels:
[1] = test system: human lung cancer Calu-3 xenografts; assay: Effect on xenografts in nude mice with lung cancer Calu-3; format: in vivo, BALB/cA-nude mice; conditions: for Initial Tumor Volume (mm^3) D0: D0 = time of first administration (baseline); for Initial Tumor Volume (mm^3) D0 / Final Tumor Inhibition Rate (%) D16 / % T/C D16 / Relative Tumor Volume D16 / Final Tumor Volume (mm^3) D16 / The Recession/Group / inhibition of growth of human lung cancer Calu-3 (in words): PO QD × 17; for Initial Tumor Volume (mm^3) D0 / Final Tumor Inhibition Rate (%) D16 / % T/C D16 / Relative Tumor Volume D16 / Final Tumor Volume (mm^3) D16 / The Recession/Group: 146.5-146.7 mg/kg; for Initial Tumor Volume (mm^3) D0 / Relative Tumor Volume D16 / Final Tumor Volume (mm^3) D16: mean; for % T/C D16: C = mean tumor volume of drug, control group; for Final Tumor Volume (mm^3) D16: D16 = 17th day after administration; for The Recession/Group: number of mice per group of 6
Method: Effect of compound 97(±), compound 97, compound 110 and Lapatinib (positive control) on xenografts in nude mice with lung cancer Calu-3 Remark: “±” means the compound is racemic.
The purpose of the experiment is to evaluate and compare the effect of compound 97(±), compound 97, compound 110, Lapatinib on xenografts in nude mice with lung cancer Calu-3.
BALB/cA-nude mice, 6-7 weeks, ♀, purchased from ShangHai Slac laboratory animal Co., Ltd.
Calu-3 cells were injected subcutaneously into nude mice. Animals were divided into groups (d0) randomly after tumors have grown to 150-300 mm^3. Dosage and dosage regimen design can be seen in table 1. Tumors volume was measured 2-3 times per week. Mice were weighed and data were recorded. Calculation formula for tumor volume (V) is as below:
V=½×a×b^2, wherein, a and b represent length and width respectively.

A431 = assay: Antitumor activity in vitro, SRB cell proliferation inhibition; format: cell-based; conditions: 72 h incubation, Logit method
Method: (§1) Evaluation of Antitumor Activity In Vitro
(§2) Cell Strains: A431; MCF-7
(§3) Experiment Design: Cells were incubated with different concentrations of compounds for 72 hours. The inhibition of cell proliferation by the compounds was evaluated by SRB, followed by calculation of the inhibition rate. Then, value of IC50 was calculated by using-Logit method base on the inhibition rate and used to compare in vitro antitumor activity of the compounds.
(§4) Method for Calculating the Inhibition Rate: Inhibition rate (%)=(OD value of control group−OD value of drug group)/OD value of control group×100%

MCF-7 = assay: as above; format: cell-based; conditions: 72 h incubation, Logit method
Method: as §1, §2, §3, §4

[2] = Homo sapiens, A-431, A431 cells
[3] = Homo sapiens, MCF7, MCF-7 cells
[4] = xenografts in nude mice, PO QD × 17, 146.7 mg/kg

IC50 (A431; [2]) [µM]	IC50 (MCF-7; [3]) [µM]	IC50 (A431; A431 cells) [µM]	IC50 (MCF-7; MCF-7 cells) [µM]	SMILES	Initial Tumor Volume (mm^3) D0 [1] [mm^3]	Final Tumor Inhibition Rate (%) D16 [1] [%]	% T/C D16 [1] [%]	Relative Tumor Volume D16 [1]	Final Tumor Volume (mm^3) D16 [1] [mm^3]	The Recession/Group [1]	inhibition of growth of human lung cancer Calu-3 (in words) ([1]; xenografts in nude mice)	fraction of the tumors in mice caused to shrink [1, 4]	number of mice with tumor shrinking more than 50% in volume [1, 4]
0.643	8.47	–	–	CS(=O)(=O)CCNCc1ccc(-c2ccc3ncnc(Nc4ccc(OCc5cccc(F)c5)c(Cl)c4)c3c2)o1 [Lapatinib, reference compound]	262.3	42	58	2.0	526.5	0	inhibited the growth of human lung cancer Calu-3 significantly	–	–
0.734	6.67	–	–	CN(C)[C@H](CS(C)(=O)=O)c1ccc(-c2ccc3ncnc(Nc4ccc(OCc5cccc(F)c5)c(Cl)c4)c3c2)o1 [Compound 97, (S)—N-(4-(3-fluorobenzyloxy)-3-chlorophenyl)-6-(5-(1-(N,N-dimethyl-amino)-2-(methylsulfonyl)ethyl)furan-2-yl)quinazolin-4-amine]	291.2	44	56	1.9	525.4	0	inhibited the growth of human lung cancer Calu-3 significantly	–	–
–	–	0.768	5.67	CN(C)[C@@H](CS(C)(=O)=O)c1ccc(-c2ccc3ncnc(Nc4ccc(OCc5cccc(F)c5)c(Cl)c4)c3c2)o1 [Compound 110, (R)—N-(4-(3-fluorobenzyl-oxy)-3-chlorophenyl)-6-(5-(1-(N,N-dimethyl-amino)-2-(methylsulfonyl)ethyl)-2-yl)quinazolin-4-amine]	249.1	77	23	0.8	187.4	1	inhibited the growth of human lung cancer Calu-3 significantly	⅚	one
–	–	0.488	7.76	CCN(C)[C@@H](CS(C)(=O)=O)c1cnc(-c2ccc3ncnc(Nc4ccc(OCc5cccc(F)c5)c(Cl)c4)c3c2)s1 [Compound 126]	–	–	–	–	–	–	–	–	–
–	–	0.636	7.63	CON(C)[C@@H](CS(C)(=O)=O)c1ccc(-c2ccc3ncnc(Nc4ccc(OCc5cccc(F)c5)c(Cl)c4)c3c2)o1 [Compound 117]	–	–	–	–	–	–	–	–	–
